Drawing on BindingDB's records for patent US20230271949 (Ascletis Bioscience, 2023), this text covers EC50 for 1 compound.

The assay concerns the target Glucagon-like peptide 1 receptor (Homo sapiens, UniProt P43220). The experiment in a line: GLP-1R agonist cAMP stimulation Assay. The text has this:
cAMP Detection Kit, Cisbio (Cat #62AM4PEJ).

Sequence of Glucagon-like peptide 1 receptor (P43220 whole entry): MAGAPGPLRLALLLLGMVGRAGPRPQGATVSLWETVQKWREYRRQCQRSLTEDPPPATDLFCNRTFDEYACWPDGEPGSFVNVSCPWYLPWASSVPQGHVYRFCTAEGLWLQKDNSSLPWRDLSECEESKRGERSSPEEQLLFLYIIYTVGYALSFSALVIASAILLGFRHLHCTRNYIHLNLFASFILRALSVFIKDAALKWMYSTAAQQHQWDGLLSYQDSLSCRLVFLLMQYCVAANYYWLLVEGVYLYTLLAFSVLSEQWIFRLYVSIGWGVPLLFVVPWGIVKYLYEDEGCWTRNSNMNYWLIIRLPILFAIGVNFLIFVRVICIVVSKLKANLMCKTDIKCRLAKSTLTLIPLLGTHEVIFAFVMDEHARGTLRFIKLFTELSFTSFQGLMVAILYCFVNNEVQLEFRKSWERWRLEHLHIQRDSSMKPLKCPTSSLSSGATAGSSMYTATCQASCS

As usually defined, the EC50 is the midpoint of the concentration-response curve. The compound `Cc1coc2c(COc3cccc(C4=CCN(Cc5nc6cc(C(=O)Nc7cc(F)c8c(c7)C7(CC7)C(=O)N8)ccc6n5C[C@@H]5CCO5)CC4)n3)ccc(C#N)c12` [US20230271949, Example 351] displayed an EC50 of 0.19 nM.
